Test results taken from patent US20250034139A1, “AMINE COMPOUNDS HAVING ANTI-INFLAMMATORY, ANTIFUNGAL, ANTIPARASITIC, AND ANTICANCER ACTIVITY” (PHARMA CINQ, LLC, priority 2013, published 2025).
Converted amounts (≈) assume the structure as drawn.

Legend:
Trichophyton rubrum = assay: Example J: Trichophyton rubrum growth inhibition, scoring by eye; assay type: cell-based; details: Trichophyton rubrum, 144 h; 6 days at 30° C., tested 6 to 40 μM; read-out: MIC, μM (maximum inhibition concentration, scoring by eye)
Experimental: Trichophyton grown on two agar plates were collected by scraping into 10 ml saline and filtered through 8 μm filters. […] This experiment included some active compounds from previous experiment and added several untested compounds. […] Following table listed the maximum inhibition concentration (MIC) based on scoring by eye. Scrape frozen Trichophyton culture from ATCC vial and suspended in 100 μl PDB, and then plate on a PDA plate. Incubate plate at 30 C for 4 days. The plate was covered almost full. […] Take OD of collected solution at 520 nm and 600 nm: […] Part-II: […] Add 6 μl each of diluted compound solutions per well in triplicates. […] Wrap the plates with […] incubate all plates at 30° C. for 6 days. • Take picture of the plates on KODAK imager with 17 captures of 1.5 sec/capture for total of 25.5 second exposure.

[1] = tested on: 4T1 murine breast cancer cells; assay: Example S: in vitro anticancer screen, 4T1 cells, Wst1; assay type: cell-based, mouse; details: Mus musculus, 4T1, 18 h, 18 hr, Wst1; for viability at 1 µM: read-out: 4T1 1 μM, percent of cancer cell survival relative to vehicle treated cells; for viability at 5 µM: read-out: 4T1 5 μM, percent of cancer cell survival relative to vehicle treated cells
Outline: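 4T1 cells seeded at 1×10^4/well were exposed to compound at 1 μM or 5 μM for 18 hr after plating. Wst1 tetrazolium dye was then added for about 2 hr and absorbance read at 450 nm (reference 630 nm). Values are percent survival relative to vehicle-treated cells.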

THP-1 cells = assay: Example D: LPS-triggered THP-1 cell death assay, acute/5-hour and chronic/48-hour; assay type: cell-based, Human; details: for Viable cell percent change, Chronic/48-hour, Mean: 10 ng/ml LPS, 0.1 μM test compound
Experimental: Compounds of the invention were tested at 0.1 μM versus AC in the LPS-triggered THP-1 cell death assay. Both acute/5-hour and chronic/48-hour phases of cell death were assessed. Compounds were screened in batches with DMSO as the negative control and AC as the high activity control.

[2] = tested on: Candida albicans strain 3153; assay: Example H: Candida albicans growth inhibition (OD 600 nm); assay type: cell-based; details: for IC50: Candida albicans, 3153, read-out: IC50 (uM) (50% inhibition of fungal growth), 24 hrs at 30° C., YPD, XLfit; for MIC: Candida albicans, 3153, 24 hrs at 30° C., YPD, XLfit, read-out: MIC (uM) (99% of inhibition of fungal growth)
Experimental: A single colony of Candida Albicans was grown in 50 ml YPD broth overnight (19 hr). The cells were washed with PBS and 3.5×10^4 CFU/ml of C. Albicans (144 μl/well) in YPD medium were plated in 96 well plates. Test compounds were then added to each well with concentration ranged from 5 to 40 μM as final concentrations. The plates were incubated at 30° C. overnight (24 hrs) and OD at 600 nm was read at the end of incubation as an index of yeast cell density.
Part-I: Preparation of Candida albicans Cells • 1. One day prior to the inoculum preparation, pick a single colony of Candida albicans strain 3153 (lot #61794) from the Sabouraud Dextrose Agar plate using the inoculum loop and inoculate into a 250 mL flask containing 50 ml of YPD growth medium • 2. Incubate at 30° C. with shaking at 150 rpm for at least 18 hours with loosened lid to allow air in and facilitate growth. • 3. Examine an aliquot of the culture under a microscope for Candida cell morphology and lack of bacterial contamination; >95% of Candida cells should be blastoconidia. • 4. Transfer 25 ml the overnight culture into a 50-ml plastic disposable centrifuge tube, and centrifuge at 1000×g for 20 min. • 5. Discard the supernatant and wash the pellet with 4 ml of PBS at three times. Vortex and centrifuge, 1000×g for 10 min. • 6. After the third wash, dispense the pellet with 2 ml PBS and vortex. • 7. Make three 1:10 serial dilutions in sterile PBS (10^−1, 10^−2, 10^−3) from the 2 ml cell suspension using 15 ml culture tubes. The final volume in each tube is 5 ml. • 8. […] Make a 1:4 dilution in YPD medium from the 50-fold dilution of 10^−3 cell suspension for testing compounds. • The final C. albicans cell concentration for the test: 3.5×10^4 CFU/ml • 10. Plated 144 ul/well of the above dilution of cell on 96-well plates. Part-II: C. Albicans Growth Inhibition Testing with Compounds • 1. From 10 mM DMSO stock solutions, make serial dilutions of compounds to 0.13, 0.25, 0.40, 0.55, 0.75 and 1.0 mM solutions • 2. Add 6 ul each of diluted compound solutions per well in duplicates. The final concentrations were 0, 5, 10, 16, 22, 30 and 40 micromolar. • 3. Incubated all plates at 30 C for overnight (˜24 hours). • 4. Read absorbance at OD600 for each plate. • 5. Calculate the % inhibition of each compound against the DMSO treated cell.

[3] = tested on: PC3 human prostate cancer cells; assay: Example S: in vitro anticancer screen, PC-3 cells, Wst1; assay type: cell-based; details: Homo sapiens, PC-3, approximately 20 hours, Wst1, read-out: PC-3, percent of cancer cell survival relative to vehicle treated cells
Outline: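 PC-3 cells, 2×10^4 cells/well, exposed ~20 h to vehicle or compound at 0.4, 0.5 or 2.5 μM as specified per compound. Wst1 dye added for 2 h; absorbance 450 nm (reference 630 nm), triplicates. Values are percent cell survival versus vehicle-treated cells.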

[4] = tested on: PC-3 prostate cancer cells; assay: Example T: sensitisation of PC-3 cells to doxorubicin, oxaliplatin, paclitaxel or vincristine, Wst1; assay type: cell-based, human; details: PC-3 cells, 72 hours; for viability at 0.4 µM: compound 0.4 μM alone; for Doxorubicin 3.5 μM: percent cell survival / Oxaliplatin 100 μM: percent cell survival / Paclitaxel 50 μM: percent cell survival / Vincristine 100 nM: percent cell survival: chemotherapy agent alone normalized to 100%
S. cerevisiae = assay: Example I: Saccharomyces cerevisiae growth inhibition (OD 600 nm); assay type: cell-based; details: Saccharomyces cerevisiae, 18 hour incubation at 30° C., OD 600 nm, XLfit; for IC50: read-out: IC50, uM (50% inhibition of fungal growth); for MIC: read-out: MIC, uM (99% of inhibition of fungal growth)
Experimental: An overnight culture of S. cerevisiae was dilution in YPD broth to concentration of 40,000/ml and 150 μl/well was plated in 96 well plates. Compounds were then added to each well with concentration ranged from 4 to 50 μM as final concentration. The plates were inoculated at 30° C. overnight with shaking at 220 rpm and absorbance at 600 nm was read after 18 hour incubation.
• 1. One days prior to the inoculum preparation, pick a single colony of S. cerevisiae from the Sabouraud Dextrose Agar plate using the inoculum loop and inoculate into a 50 mL tube containing 10 ml of YPD growth medium • 2. Incubate at 30° C. with shaking at 220 rpm for 24 hours with loosen lid to allow air in and facilitates growth. • 3. Examine an aliquot of the culture under a microscope for yeast cell morphology and lack of bacterial contamination. • 4. Dilute the overnight culture with YPD medium at 1:30 dilution (70 ul to 2.1 ml) and count the number of cells as 4,230,000/ml. • 5. Mix 620 μl of 1:30 dilution and 64.4 ml YPD to make final concentration of 40,000/ml cells • 6. Plated 144 μl/well in four 96-well plates.
• 1. From 10 mM DMSO stock solutions, make serial dilutions of compounds to 0.1, 0.2, 0.3, 0.63 and 1.25 mM solutions • 2. Add 6 μl each of diluted compound solutions per well in duplicates. The final concentrations were 0, 4, 8, 12, 25 and 50 micromolar. • 3. Incubated all plates at 30 C for overnight (˜18 hours) with 220 rpm shaking. • 4. Read absorbance at OD600 for each plate on Spectra Max Plus plate reader. • 5. Calculate the % inhibition of each compound against the DMSO treated cell and plotted.

[5] = Homo sapiens, Wst1, vehicle = 100, read-out: No Chemo: percent cell survival
[6] = compound 0.4 μM + doxorubicin 3.5 μM
[7] = compound 0.4 μM + oxaliplatin 100 μM
[8] = compound 0.4 μM + paclitaxel 50 μM
[9] = compound 0.4 μM + vincristine 100 nM

MIC (Trichophyton rubrum) [µM]	IC50 [2] [µM]	MIC [2] [µM]	IC50 (S. cerevisiae) [µM]	MIC (S. cerevisiae) [µM]	Structure (SMILES)	viability at 1 µM [1] [%]	viability at 5 µM [1] [%]	Viable cell percent change, Chronic/48-hour, Mean (THP-1 cells) [%]	viability at 0.4 µM [3] [%]	viability at 0.4 µM [4, 5] [%]	Doxorubicin 3.5 μM: percent cell survival [4, 6] [%]	Oxaliplatin 100 μM: percent cell survival [4, 7] [%]	Paclitaxel 50 μM: percent cell survival [4, 8] [%]	Vincristine 100 nM: percent cell survival [4, 9] [%]	other results
> 40	41.2	–	–	–	CCCCCCNC(=O)c1ccc(Nc2ccnc3ccccc23)cc1 [AQ, N-Hexyl-4-(quinolin-4-ylamino)benzamide]	94.8	92.7	24.71	–	–	–	–	–	–	–
> 40	33.5	44.8 (≈ 15.2 µg/mL)	–	–	CCCCCCOc1ccc(Nc2ccnc3ccccc23)c(F)c1 [BL, N-[2-Fluoro-4-(hexyloxy)phenyl]quinolin-4-amine]	–	–	32.33	106	106	135.5	120	141.4	111.2	–
~40 (≈ 13.9 µg/mL)	25	42 (≈ 14.6 µg/mL)	26.3	46.5 (≈ 16.2 µg/mL)	CCCCCCOC(=O)c1ccc(Nc2ccnc3ccccc23)cc1 [AP, Hexyl 4-(quinolin-4-ylamino)benzoate]	110	246	37.38	–	–	–	–	–	–	–
18 (≈ 6.27 µg/mL)	–	–	19.1	24.3 (≈ 8.45 µg/mL)	c1ccc(OCCCCCCCCNc2ccnc3ccccc23)cc1 [AN, N-(8-Phenoxyoctyl)quinolin-4-amine]	26.6	50.3	31.66	75.9	75.9	28.2	24.7	45.8	67.3	activity relative to AC in the LPS-triggered THP-1 cell death assay, in words (THP-1 cells; 0.1 μM, 5-hour and 48-hour time points): equivalent activity to AC at both the 5-hour and 48-hour time points
> 40	34.7	84.9 (≈ 25.9 µg/mL)	–	–	CCCCCCc1ccc(Nc2ccnc3ccccc23)cc1 [AO, N-(4-Hexylphenyl)quinolin-4-amine]	28.9	18.6	25.19	35	35	80.7	91	93.1	91.1	–
12 (≈ 3.38 µg/mL)	28.8	90.6 (≈ 25.5 µg/mL)	35.6	50.8 (≈ 14.3 µg/mL)	CCCCCCCCn1cnc2cnc3ccccc3c21 [BP, 1-Octyl-1H-imidazo[4,5-c]quinoline]	33.6	23.3	–	–	–	–	–	–	–	viability at 0.5 µM ([3]; 0.5 μM): 50.5%; viability at 0.5 µM ([4]; Homo sapiens, compound 0.5 μM alone, Wst1, vehicle = 100, read-out: No Chemo: percent cell survival): 50.5%; Doxorubicin 3.5 μM: percent cell survival ([4]; compound 0.5 μM + doxorubicin 3.5 μM): 79.1%; Oxaliplatin 100 μM: percent cell survival ([4]; compound 0.5 μM + oxaliplatin 100 μM): 113.6%; Paclitaxel 50 μM: percent cell survival ([4]; compound 0.5 μM + paclitaxel 50 μM): 95.1%; Vincristine 100 nM: percent cell survival ([4]; compound 0.5 μM + vincristine 100 nM): 93%
